Experimental data reported in patent US20110124604A1, “PHOSPHOLIPID RECEPTORS AS TARGETS FOR ENHANCING DRUG PERMEABILITY TO SELECTED TISSUES” (priority 2006, published 2011).
Entries after “also recorded” stand apart in the source; their conditions may differ.

Experiments:
[1] = system: bovine brain microvessel endothelial cell (BBMEC) monolayers; assay: Permeability of confluent BBMEC monolayers (FDX-3000 flux); format: cell-based; details: for effect on BBMEC permeability in words: 0.1, 1 and 10 uM; for onset of permeability effect: earliest time point tested 15 min
Protocol: The permeability effects of LPA and S1P were examined in various microvessel endothelial cell preparations. […] The BBMECs and the PBMEC were seeded (50,000 cells/cm2) on collagen coated, fibronectin treated, 6-well Transwell polycarbonate membrane inserts (0.4 um pore/24 mm diameter). The culture media consisted of: 45% minimum essential medium eagle (MEM), 45% Ham's P 12 nutrient mix, 10 mM HEPES, 13 mM sodium bicarbonate, 50 ug/ml gentamicin, 10% equine serum, 2.5 ug/ml amphotericin B, and 100 ug/ml heparin. The cell cultures were grown in a humidified 37° C. incubator with 5% CO2. The media was replaced every other day, and the BBMEC and PBMEC monolayers were used after reaching confluency (approximately 11-14 days).
Lyophilized LPA and S1P was purchased as lyophilized powder and was reconstituted into a 10 mM stock solution using 0.25% fatty acid-free bovine serum albumin (BSA) in assay buffer and kept at −20° C. until used. Working solutions of the phospholipids and C5a were prepared by diluting in assay buffer (0.25% BSA in the assay buffer).
Permeability studies were performed on confluent BBMEC and PBMEC, monolayers at 370 C. All the cells were pretreated with assay buffer for 30 minutes at 37° C. The control group was treated with assay buffer (0.25% BSA [fatty acid free]). For these studies, 1.5 ml of assay buffer was added to the lumina] (apical) side of the monolayer and 2.5 ml of assay buffer was added to the ablumenal (basolateral) side of the monolayer. Treatment groups received either LPA (0.1, 1, and 10 uM) or S1P (0.1, 1, 10 uM), alone and in combination, on both sides of the inserts. Permeability across the cell monolayers was determined by adding 10 uM fluorescein-labeled dextran (FDX-3000; MW 3000) to the donor (apical) compartment. Samples (100 ul) were removed from the receiver (basolateral) compartment at various times (0, 15, 30, 60 and 90 minutes). Samples (100 ul) were also taken from the donor compartment at the start (time 0) and conclusion (90 min) of the experiment. The concentration of FDX-3000 in the donor and receiver samples was measured spectrofluorometrically using a Shimadzu RFU5000 spectrofluorometer (Shimadzu Scientific Instruments, Columbia, Md., USA) with Ex (7 v) at 488 nm and Em (2 k.) at 510 nm. Permeability was expressed as the percent transfer of the fluorescent marker across the monolayers. The percent transfer was determined by dividing the cumulative concentration in the receiver compartment by the original concentration in the donor compartment at time zero. Permeability coefficients were calculated from the following formula:
V=volume of receiver chamber SA=surface area of cell monolayer Cd=conc of marker in the donor at time 0 Cr=the cumulative conc of marker in the receiver at the sample at time T

BBMEC monolayers = assay: Polarity studies: apical or basolateral application on BBMEC monolayers; format: cell-based, bovine
Protocol: The permeability effects of LPA and S1P were examined in various microvessel endothelial cell preparations. Primary bovine and porcine brain microvessel endothelial cells (BBMEC and PBMEC, respectively) were collected from the gray matter of fresh cow and pig cerebral cortices using a combination of enzymatic digestion and centrifugal separation methods previously described. The BBMECs and the PBMEC were seeded (50,000 cells/cm2) on collagen coated, fibronectin treated, 6-well Transwell polycarbonate membrane inserts (0.4 um pore/24 mm diameter). The culture media consisted of: 45% minimum essential medium eagle (MEM), 45% Ham's P 12 nutrient mix, 10 mM HEPES, 13 mM sodium bicarbonate, 50 ug/ml gentamicin, 10% equine serum, 2.5 ug/ml amphotericin B, and 100 ug/ml heparin. […]
For studies examining the functional polarity of LPA and S1P […] of the phospholipids were applied to either the apical or basolateral side of confluent brain microvessel endothelial cell monolayers. There was 30 min AB pretreatment followed by treatment with either LPA and S1P on either apical and/or basolateral side and the flux of FDX-3000 across the monolayer was measured. Permeability across the cell monolayers was determined by adding 10 uM fluorescein-labeled dextran (FDX-3000; MW 3000) to the donor compartment. […] Samples were analyzed as described above.

blood-brain barrier [2] = format: in vivo, mouse; details: 15 minutes, mice
Protocol: FIG. 12. Adult female Balb/c mice were anesthetized with ketamine xylazine cocktail, and given a bolus i.v. (tail vein) injection of the near infrared fluorescent dye, rhodamine 800 (3.2 μmol/kg) either alone or in the presence of LPA (1.0 mg/kg) or the combination of LPA and S1P (0.1 mg/kg). Mice were sacrificed at 15 minutes following injection of rhodamine 800 and following perfusion with formalin through cardiac puncture, the brain was removed and sliced (3 mm) coronally. The appearance of rhodamine 800 was visualized using an Odyssey near infrared imaging system. […] The rhodamine 800 is confined primarily to the cerebral spinal fluid present in the ventricles (the small bright regions observed in the various brain slices). […] This is evident by the intense bright fluorescence of the brain slices in the LPA treated mouse.

blood-brain barrier [3] = assay: In vivo permeability study, 3H-methotrexate tissue distribution in mice; design: species or system mouse
Protocol: (§1) FIG. 11. Bar graph showing 20 fold increase in ^3H-methotrexate uptake in mouse brain when LPA is present. Adult female Balb/c mice were administered radiolabeled methotrexate via bolus tail vein injection. The radiolabeled methotrexate was given either alone, or in the presence of 1.0 mg/kg LPA. Fifteen minutes after injection of radiolabeled methotrexate, the mice were sacrificed and blood and tissue (brain, lung, kidney and liver) samples removed. The brain was homogenized and the cerebral microvascular endothelial cells were separated from the rest of the brain via centrifugation in 13% dextran solution at 7500×g for 15 minutes. Samples of the brain parachyma were removed for determination of radioactivity along with other tissue homogenates. Under normal conditions less than 1% of the injected dose of radiolabeled methotrexate was delivered to the brain. However, in the presence of LPA, an approximately 20-fold enhancement of radiolabeled methotrexate delivery to the brain was observed.
(§2) Female Balb/c mice were used to assess BBB permeability in vivo. Mice received a bolus injection (ml/kg) of ^3H-methotrexate (4 uCi total activity) via the tail vein. The radiolabeled methotrexate was given in combination with either LPA (1 mg/kg) or vehicle (0.25% bovine serum albumin in phosphate buffered saline solution). Fifteen minutes after the injection of methotrexate, mice were anesthetized using intraperitoneal injection of ketamine and xylazine and a sample of blood was removed by cardiac puncture. Following the blood sample, mice were sacrificed and various tissues including, the brain, lung, liver and kidney, were removed for determination of 3H-methotrexate. Blood samples were spun for 8-10 minutes and 100 uL of plasma was collected. Tissue samples were weighed and homogenized with double the volume of tissue solubilizing agent (Scintigest™, Fisher Scientific). A 200 uL aliquot of the tissue homogenate was used to analyse the tissue samples. The samples were then mixed with Ultima Gold™ (Perkin Elmer) scintillation cocktail and analysed by liquid scintillation counter (Perkin Elmer) to determine the amount of ^3H-methotrexate present in the blood and tissue. The distribution of ^3H-methotrexate was based on the ratio of the radioactivity in the tissue versus the radioactivity in the plasma sample.

[4] = as above; design: species or system mouse; details: female, Balb/c, mouse, brain / plasma, intravenous, 4 uCi total activity; methotrexate alone; 15 minutes after systemic administration; read-out: brain to plasma ratio of 3H-methotrexate in control mice
Protocol: as §1, §2

[5] = system: porcine brain microvessel endothelial cells (PBMEC); assay: Permeability of porcine BMEC monolayers (FDX-3000 flux); format: cell-based; details: LPA 0.1, 1 and 10 uM
Protocol: The permeability effects of LPA and S1P were examined in various microvessel endothelial cell preparations. Primary bovine and porcine brain microvessel endothelial cells (BBMEC and PBMEC, respectively) were collected from the gray matter of fresh cow and pig cerebral cortices using a combination of enzymatic digestion and centrifugal separation methods previously described. The BBMECs and the PBMEC were seeded (50,000 cells/cm2) on collagen coated, fibronectin treated, 6-well Transwell polycarbonate membrane inserts (0.4 um pore/24 mm diameter). […]
Permeability studies were performed on confluent BBMEC and PBMEC, monolayers at […]. […] Permeability across the cell monolayers was determined by adding 10 uM fluorescein-labeled dextran (FDX-3000; MW 3000) to the donor (apical) compartment. […] The concentration of FDX-3000 in the donor and receiver samples was measured spectrofluorometrically using a Shimadzu RFU5000 spectrofluorometer (Shimadzu Scientific Instruments, Columbia, Md., USA) with Ex (7 v) at 488 nm and Em (2 k.) at 510 nm. Permeability was expressed as the percent transfer of the fluorescent marker across the monolayers. The percent transfer was determined by dividing the cumulative concentration in the receiver compartment by the original concentration in the donor compartment at time zero. Permeability coefficients were calculated from the following formula: […]

blood-brain barrier [6] = assay: Rat cranial window model, clearance of FDX 10 kDa; format: in vivo; details: LPA 10 uM
Protocol: Cerebral vascular permeability was also evaluated using the rat cranial window model. For these studies male Wistar-Furth rats (n=15) were anesthetized (Inactin; thiobutabarbital 100 mg/kg ip), and a tracheotomy was performed. The rats were mechanically ventilated with room air and supplemental oxygen. A catheter was placed in the femoral artery for the measurement of systemic blood pressure and to obtain blood samples. A catheter was placed in the femoral vein for injection of intravascular tracer FDX 10 10a. […] Blood gases were also monitored and maintained within normal limits. […]
Permeability of the BBB was evaluated by calculating the clearance of FDX 10 kDa (10^−6 ml/s) from the area of parietal cortex exposed by the craniotomy, as previously described (Mayhan and Heistad, Am J. Physiol, 248: H712-H718, 1985; Mayhan, Brain Research, 927: 144-152, 2002). Briefly, the suffusate fluid was collected in glass test tubes with the aide of a fraction collector, and the concentration of FDX in the suffusate fluid during topical application of vehicle (saline) or LPA (10 μM) was determined using a spectrofluorometer. […] The clearance of 1010a FDX was calculated by multiplying the suffusate-to-plasma concentration by the suffusate flow rate (Mayhan and Heistad, Am J. Physiol, 248: H712-H718, 1985; Mayhan, Brain Research, 927: 144-152, 2002). […]

[7] = LPA 1 mg/kg i.v., 15 minutes, mice

CCO [Ethanol, ethanol, reference compound]
increase in BBMEC monolayer permeability ([1]; ethanol 50 mM): 3 fold

CCCCCCCCCCCCC/C=C/[C@@H](O)[C@@H](N)COP(=O)(O)O [S1P, sphingosine 1-phosphate]
decrease in BBMEC monolayer permeability, applied apically or basolaterally (BBMEC monolayers; S1P 10 uM): approximately 2 fold | effect on BBMEC permeability in words ([1]; FDX-3000): equally as robust decrease in permeability; also recorded: decreased the permeability of FDX-3000; also recorded: concentration-dependent decreases | onset of permeability effect ([1]; BBMEC): ≤ 15 min | effect on the BBMEC permeability ([1]; S1P 0.1 uM): no significant effect | decrease in permeability of BBMEC ([1]; S1P 1 and 10 uM): 2 fold | effect of S1P on the permeability increase induced by LPA ([1]; S1P (10 uM) co-administered with LPA, BBMEC): completely overcome; also recorded: totally prevented; also recorded: abolished | effect of S1P on the permeability effect of ethanol ([1]; ethanol 50 mM and S1P, BBMEC): abolished; also recorded: decrease in permeability | effect of S1P on the permeability effect of horse serum ([1]; horse serum 10% and S1P, BBMEC): abolished; also recorded: decreased the permeability effect | duration of permeability effect ([1]; in the presence of S1P): 90 min | effect of S1P on the LPA-induced increase in rhodamine 800 brain distribution (blood-brain barrier [2]; LPA 1.0 mg/kg and S1P 0.1 mg/kg i.v.): prevents the increases

CN(Cc1cnc2nc(N)nc(N)c2n1)c1ccc(C(=O)N[C@@H](CCC(=O)O)C(=O)O)cc1 [^3H-methotrexate, methotrexate, reference compound]
share of the injected dose delivered to the brain (blood-brain barrier [3]; radiolabeled methotrexate alone, normal conditions, mice): less than 1% | Kp at 15 min [4]: ~0.02

lysophosphatidic acid [LPA]
effect on porcine BMEC permeability in words [5]: concentration-dependent increase | increase in permeability following apical or basolateral application (BBMEC monolayers; LPA 10 uM, BBMEC): 2 fold | effect on BBMEC permeability in words ([1]; FDX-3000): concentration-dependent increase | onset of permeability effect ([1]; BBMEC): ≤ 15 min | increase in the permeability of BBMEC monolayers ([1]; LPA 10 uM, FDX-3000): 2 fold | increase in monolayer permeability ([1]; LPA 0.1 and 1 uM, FDX-3000, BBMEC): ~1.5 fold | onset of effect on cerebral vascular permeability (blood-brain barrier [6]): rapid in onset (within minutes) | reversal of permeability after LPA was stopped (blood-brain barrier [6]): returned to baseline levels extremely rapidly; also recorded: equally rapid in returning to baseline permeability | rhodamine 800 delivery to the brain with LPA (blood-brain barrier [2]; LPA 1.0 mg/kg i.v. with rhodamine 800 3.2 μmol/kg): substantially greater rhodamine 800 was delivered to the brain | effect on 3H-methotrexate accumulation in liver or kidney (blood-brain barrier [3]; [7]): no significant increases; also recorded: no effect | increase in 3H-methotrexate accumulation in the lung (blood-brain barrier [3]; [7]): approximately 3 fold | brain to plasma ratio of 3H-methotrexate with LPA (blood-brain barrier [3]; LPA 1 mg/kg, 15 minutes after administration, mice): approximately 20% | onset of action in the mouse (blood-brain barrier [3]; LPA, mouse): ≤ 15 min
